Here are results for ten compounds from patent US20240109852A1, “Ferroptosis-HDAC Inhibitor Hybrid Anticancer Agents” (The University of Toledo, priority 2022, published 2024).

pIC50: −log10 of the molar value. Like-named read-outs stand apart in the source and are kept apart here.

Data set [1] deals with NCI-H522 human lung cancer cells. Put plainly: Cell viability assay (methylene blue staining), NCI-H522. It counts as cell-based. The note with it: NCI-H522, 72 h, read-out: IC50 ± SD (n = 3) on NCI-H522 cell line.
Method: (§2) Cell viability was assessed using methylene blue staining: cells were plated at 5000/well in 96 well plates (n=3) respectively and treated the next day. Three days after treatment cells were fixed/stained in methylene blue saturated in 50% ethanol for 30 min at RT. Plates were washed with excess water to wash off extra dye.
The test system of data set [2] is HCT116 human colorectal carcinoma cells. Put plainly: Cell viability assay (methylene blue staining), HCT-116. In kind it is cell-based. The note with it: HCT-116, 72 h, read-out: IC50 ± SD (n = 3) on HCT-116 cell line.
Method: as §2
For data set [3], the system named is NCI-60 human tumor cell lines. Put plainly: NCI-60 five dose assay, whole panel. It counts as cell-based.
Data set [4] concerns SH-SY5Y cell line (human neuroblastoma). Put plainly: MTT cell viability assay on SH-SY5Y neuronal cells. In kind it is cell-based. The note with it: for effect on neuronal cells (neurotoxicity), SH-SY5Y viability: 0.5×IC50, 1×IC50, 2×IC50 of the corresponding control on H522. The method, then:
Human neuroblastoma cells (SH-SY5Y) were grown on poly-D-lysine coated plates and cultured in DMEM/F12 medium (HyClone, Thermo Scientific) containing 10% fetal bovine serum and 1% penicillin-streptomycin. Cells were maintained in a 37° C. incubator with a 5% CO2 atmosphere. Cells were seeded at a density of 15,000 cells in 96 well plates for 36 hr before treatment of drugs. […] G4102) according to the manufacturer's instructions. Cells were treated with amide series analogs for 24 hrs. Briefly, the cells were incubated with MTT reagent for 2 h at 37° C. incubator. Then, the solubilization/stop solution was added to solubilize the formazan products, incubated for 1 hr, and absorbance at 570 was measured using micro-plate reader (SynergyH1, BioTek, USA). DMSO was used a vehicle control. The experimental data represent the means±SD (*P<0.05) of triplicates from three separate experiments. The statistical significance was determined by one-way ANOVA and significant differences P<0.05, P<0.01, P<0.001, and P<0.0001 are symbolized as *, **, ***, and ****, respectively.
On the technique in general: Tetrazolium dyes change colour on reduction, which living cells bring about.

The subject of data set [5] is NCI-60 human tumor cell lines. The data set can be described thus: NCI-60 one dose assay, whole panel. The note with it: compared to other hybrids, HDAC controls and SAHA. It counts as cell-based.
The test system of data set [6] is WI-38 cells (normal human lung fibroblasts). The data set can be described thus: Cell viability assay (methylene blue staining), WI-38 normal cells. In kind it is cell-based. The note with it: concentration of therapeutic relevance (2 μM), mesenchymal system.
Method: as §2
The test system of data set [7] is hTERT-immortalized RPE cells (retinal pigment epithelial cells). The data set can be described thus: Cell viability assay (methylene blue staining), RPE normal cells. In kind it is cell-based, human.
Method: as §2
For data set [8], the system named is PC-12 (pheochromocytoma) cells. Put plainly: MTT cytotoxicity on undifferentiated and differentiated PC-12 cells. It counts as cell-based. The note with it: both non-differentiated and NGF-differentiated states. The method, then:
Pheochromocytoma (PC-12) cells were grown on poly-D-lysine coated plates and cultured in DMEM/F12 medium (HyClone, Thermo Scientific) containing 5% fetal bovine serum, 5% horse serum, and 1% penicillin-streptomycin. Cells were maintained in a 37° C. incubator with a 5% CO2 atmosphere. Cells were seeded at a density of 15,000 cells per well in 96 well plates for 36 hr before treatment with the test compounds. The MTT assay was performed after 24 hr of treatment.
Pheochromocytoma (PC-12) cells were seeded on poly-D-lysine coated plates containing neuron differentiation medium (100 ng nerve growth factor, DMEM/F12, 5% fetal bovine serum, 5% horse serum, and 1% penicillin-streptomycin) and grown for 5 days to differentiate to neurons. Cells were maintained in a 37° C. incubator with a 5% CO2 atmosphere. Cells were trypsinized, and seeded at a density of 15,000 cells/well in 96 well plates with neuron differentiation medium for 36 hr before treatment with the test compounds. The MTT assay was performed after 24 hr of treatment.

The test system of data set [9] is lipid peroxides in NCI-H522 cells. The data set can be described thus: C11-BODIPY lipid peroxidation assay (flow cytometry). The note with it: NCI-H522, 10 μM, within 6 hours of treatment. It counts as cell-based, human. The method, then:
NCI-H522 cells (˜70% density) were plated on 7 cm dishes and let overnight to adhere. […] After 6 h, cells were washed with 1×PBS and collected by trypsinization and centrifugation. The cells were washed once with 1×PBS and resuspended in PBS containing 2% FBS. Cells were analyzed using a BD LSR Fortessa FACScanner and FlowJo software. For each sample 20×10^3 cells were analyzed.

Data set [10] concerns NCI-H522 cells. Put plainly: Time-lapse microscopy of cell death in NCI-H522 cells. The note with it: for time from initiation of ferroptosis until most/all cells were dead: CETZOLE-1 20 μM (most cells), HY-1 5 μM (all cells); for time of initiation of ferroptosis after treatment: CETZOLE-1 20 μM, HY-1 5 μM. In kind it is cell-based, human. The method, then: For time lapse imaging, NCI-H522 cells were plated at ˜70% density and left overnight to adhere and pre-equilibrate to 10% CO2. The next day cells were treated with DMSO or inhibitors, and the flask was maintained sealed. Flasks were placed on a 37° C. heated stage on an inverted microscope. Images were captured every 12 min and for a total of 300 images using a ×40 microscope objective and an Olympus C740 digital camera controlled by AmScope software. Image analysis was done using Image J. For the Kaplan-Maier graphs at least 100 cells were counted and the event of cell death was measured on a time frame of either 1 h or 0.2 h.

Data set [11] has as its system RPMI-8226 (leukemia cell line). The data set can be described thus: NCI-60 five dose assay, RPMI-8226. In kind it is cell-based. The note with it: Homo sapiens, RPMI-8226, read-out: GI50, RPMI-8226.
The test system of data set [12] is NCI-H23 (NSC lung cancer cell line). Put plainly: NCI-60 five dose assay, NCI-H23. In kind it is cell-based. The note with it: Homo sapiens.
In data set [13] the test system is SF-539 cell line (CNS cancer). The data set can be described thus: NCI-60 five dose assay, SF-539. The note with it: Homo sapiens. It counts as cell-based.
Data set [14] has as its system LOXIMVI (melanoma cell line). The data set can be described thus: NCI-60 five dose assay, LOXIMVI. It counts as cell-based. The note with it: Homo sapiens, LOX IMVI, read-out: GI50, LOXIMVI.
Data set [15] deals with IGROV-1 (ovarian cancer cell line). The data set can be described thus: NCI-60 five dose assay, IGROV-1. In kind it is cell-based. The note with it: Homo sapiens.
Data set [16] concerns PC-3 (prostate cancer cell line). The data set can be described thus: NCI-60 five dose assay, PC-3. In kind it is cell-based. The note with it: Homo sapiens, read-out: GI50, PC-3.
Data set [17] has as its system DU-145 (prostate cancer cell line). Put plainly: NCI-60 five dose assay, DU-145. It counts as cell-based. The note with it: Homo sapiens.
Data set [18] has as its system HS578 (breast cancer cell line). Put plainly: NCI-60 five dose assay, HS578. In kind it is cell-based. The note with it: Homo sapiens.
In data set [19] the test system is NCI-H23 cell line (NSC-Lung cancer). The note with it: one dose; SAHA data from the public data base of NCI; cited from earlier work.
For data set [20], the system named is DU-145 cells (prostate cancer). The note with it: one dose; SAHA data from the public data base of NCI; cited from earlier work.
The subject of data set [21] is acetyl-H3 (K9) (histones, HDAC class I substrate). The data set can be described thus: Western blot, acetyl-H3 (K9) in NCI-H522 cells. It counts as cell-based, human. The note with it: NCI-H522, concentration of 5 μM. The source says: (§1) Bound antibodies were detected using enhanced chemiluminescence (Biorad).
The test system of data set [22] is acetyl tubulin (class II, HDAC-6 substrate). The data set can be described thus: Western blot, acetyl tubulin in NCI-H522 cells. It counts as cell-based, human. The note with it: NCI-H522, concentration of 5 μM.
Excerpt: as §1
(In general: A western blot detects proteins with antibodies after separation by electrophoresis.)

Consider `C#Cc1nc(/C=C\CCCCCC(=O)NO)cs1` [HY-2, (Z)-8-(2-ethynylthiazol-4-yl)-N-hydroxyoct-7-enamide], for which the pIC50 in data set [1] was 5.97; in data set [2] it was 5.92. Besides, the 50% growth inhibitory concentration (GI50) in data set [3] (read-out: average GI50) worked out at 2180 nM.

Turning to `C#Cc1nc(/C=C/C=C/C(=O)NO)cs1` [HY-4, (2E,4E)-5-(2-ethynylthiazol-4-yl)-N-hydroxypenta-2,4-dienamide], the “effect on neuronal cells (neurotoxicity), SH-SY5Y viability” value (from here on “effect on neuronal cells (neurotoxicity)”) in [4] is “not showing attenuated neurotoxicity”. Further, in [5], the “cytotoxicity profile in the NCI-60 screen” value is recorded as “worst cytotoxicity profile”.

For `COC(=O)CCCCCCNC(=O)c1csc(Br)n1` [NC-1, Methyl 7-(2-bromothiazole-4-carboxamido)heptanoate], the “effect on neuronal cells (neurotoxicity)” value in data set [4] is listed as “no effect”.

`C#Cc1nc(C(=O)NCCCCCCC(=O)NO)cs1` [HY-1, 2-Ethynyl-N-(7-(hydroxyamino)-7-oxoheptyl)thiazole-4-carboxamide]: the “toxic effects on normal cells (WI-38)” value in [6] is reported as “no toxic effects on normal cells”. Besides, the “toxicity on normal cells (RPE)” value in data set [7] (concentration of therapeutic relevance (2 μM), epithelial system) was “no toxicity was observed on the normal cells”. In data set [4] (concentrations of therapeutic relevance (2.32 μM)), the “neurotoxic effects, SH-SY5Y viability” value is recorded as “no neurotoxic effects”. In addition, the “sensitivity of differentiated and undifferentiated PC-12 cells” value in data set [8] is “behaved like the HDAC control HC-1”. Also, the “lipid peroxide levels (oxidized C11-BODIPY 581/591)” value in data set [9] is “increased levels of lipid peroxides”. In data set [10], the “time from initiation of ferroptosis until most/all cells were dead” value was at most 2 h. Moreover, in data set [10], the “time of initiation of ferroptosis after treatment” value was found to be 8 h. Further, the “cytotoxicity profile in the NCI-60 screen” value in data set [5] was “best cytotoxicity profile”. The GI50 in [3] (read-out: GI50 values as low as) was at least 20 nM; in data set [3] (read-out: average GI50), 850 nM; in data set [11], 350 nM; in data set [12] (NCI-H23, read-out: GI50, NCI-H23), 780 nM; in data set [13] (SF-539, read-out: GI50, SF-539) it was 1000 nM; in data set [14] it was 20 nM. Also, the GI50 worked out at 570 nM in data set [15] (IGROV-1, read-out: GI50, IGROV-1); 2000 nM in [16]; 360 nM in data set [17] (DU-145, read-out: GI50, DU-145).

Consider `C#Cc1nc(C(=O)NCCCCCCC(=O)OC)cs1` [FC-1, Methyl 7-(2-ethynylthiazole-4-carboxamido)heptanoate], for which the “effect on neuronal cells (neurotoxicity)” value in data set [4] is “significant neurotoxicity”. The “sensitivity of differentiated and undifferentiated PC-12 cells” value in [8] is reported as “resistant”.

With `O=C(CCCCCCNC(=O)c1csc(Br)n1)NO` [HC-1, 2-Bromo-N-(7-(hydroxyamino)-7-oxoheptyl)thiazole-4-carboxamide], the “effect on neuronal cells (neurotoxicity)” value in data set [4] is recorded as “very mild toxicity”. Further, in data set [3] (read-out: average GI50), the 50% growth inhibitory concentration (GI50) came to 1510 nM.

Turning to `C#Cc1nc(C2=C(C)C(O)CC2)cs1` (centres unmarked) [CETZOLE-1, reference compound], the pIC50 in data set [7] (normal RPE epithelial cells, FBS media (FIGS. 11A, 11C), read-out: IC50 on RPE (selectivity study)) was below 4.52. Moreover, in data set [10], the “time from initiation of ferroptosis until most/all cells were dead” value is at most 8 h and the “time of initiation of ferroptosis after treatment” value is listed as “approximately 12 hours”.

Regarding `C#Cc1nc(/C=C/CCCCCC(=O)NO)cs1` [HY-3, (E)-8-(2-ethynylthiazol-4-yl)-N-hydroxyoct-7-enamide], the pIC50 in data set [1] was 5.80; in [2], 5.30. Further, the GI50 in [3] (read-out: average GI50) came to 3390 nM.

With `O=C(CCCCCCC(=O)Nc1ccccc1)NO` [SAHA], the “time after treatment at which cells were still alive” value in data set [10] (SAHA 5 μM) is at least 60 h. The GI50 in [3] (five dose assay, mean over approximately sixty cell lines, read-out: average GI50) was 1210 nM; in data set [12] (NCI-H23, five dose assay, read-out: GI50, NCI-H23) it was 2000 nM; in [13] (SF-539, five dose assay, read-out: GI50, SF-539), 2000 nM; in [14] (five dose assay), 1250 nM; in data set [15] (IGROV-1, five dose assay, read-out: GI50, IGROV-1), 2000 nM; in data set [16] (five dose assay), 1580 nM. In addition, the GI50 stood at 1250 nM in data set [17] (DU-145, five dose assay, read-out: GI50, DU-145) and 2000 nM in data set [18]. In [19], the “Growth %, NCI-H23 (NCI public data base)” value is on record as 3.30%. Further, in [20], the “Growth %, DU-145 (NCI public data base)” value is reported as 3.5%.

As to `C#Cc1nc(/C=C/C(=O)NO)cs1` [HY-5, (E)-3-(2-ethynylthiazol-4-yl)-N-hydroxyacrylamide], the “H3 hyperacetylation at 5 μM” value in data set [21] is listed as “did not show any H3 hyperacetylation”. In data set [22], the “tubulin hyperacetylation at 5 μM” value is “tubulin hyperacetylation”. Further, the concentration for 50% growth inhibition (GI50) in data set [3] (read-out: average GI50) came to 2470 nM.

Broadly, the pIC50 is the negative decadic logarithm of the IC50, by convention in mol/L. The GI50 is the concentration at which growth is held to half of that of the control.
